Source: US8415342B2, “Besifloxacin ophthalmic composition for the treatment or control of infection” (Bausch & Lomb Incorporated, priority 2008, dated 2013)
Values joined by “and” are separate entries in the source; they are usually repeats but may differ in a detail not shown here. Equal values may be shown once.

Columns and labels:
[1] = target: T1, S. pneumoniae topoisomerase IV (Streptococcus pneumoniae serotype 4, UniProt P72525+Q59961); format: biochemical; settings: S. pneumoniae enzymes; concentration that produces 25% linearization of the DNA
T1 sequence (P72525 1-823): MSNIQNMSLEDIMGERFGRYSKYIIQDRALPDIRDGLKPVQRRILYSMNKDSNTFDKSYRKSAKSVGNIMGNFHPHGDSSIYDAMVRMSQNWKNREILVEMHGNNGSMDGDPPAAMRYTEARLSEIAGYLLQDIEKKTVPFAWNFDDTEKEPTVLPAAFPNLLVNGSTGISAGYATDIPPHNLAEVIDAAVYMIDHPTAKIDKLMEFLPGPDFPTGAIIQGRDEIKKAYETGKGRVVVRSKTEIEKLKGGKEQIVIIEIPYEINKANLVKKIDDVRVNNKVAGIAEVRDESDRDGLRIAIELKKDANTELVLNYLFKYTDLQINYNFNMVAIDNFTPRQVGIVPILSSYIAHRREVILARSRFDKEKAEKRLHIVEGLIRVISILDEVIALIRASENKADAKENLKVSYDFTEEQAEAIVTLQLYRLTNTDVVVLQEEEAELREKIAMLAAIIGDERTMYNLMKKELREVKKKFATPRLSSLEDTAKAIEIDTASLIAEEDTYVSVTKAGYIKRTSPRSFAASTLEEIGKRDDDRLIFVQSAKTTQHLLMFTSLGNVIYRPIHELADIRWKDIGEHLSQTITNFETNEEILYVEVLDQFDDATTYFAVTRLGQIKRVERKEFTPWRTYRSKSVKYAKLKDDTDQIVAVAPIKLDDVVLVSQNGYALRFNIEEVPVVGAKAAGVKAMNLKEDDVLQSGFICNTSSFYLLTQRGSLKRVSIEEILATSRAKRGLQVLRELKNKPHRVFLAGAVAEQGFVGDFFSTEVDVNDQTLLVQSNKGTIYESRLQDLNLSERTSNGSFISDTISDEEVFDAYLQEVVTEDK
T1 sequence (Q59961 1-647): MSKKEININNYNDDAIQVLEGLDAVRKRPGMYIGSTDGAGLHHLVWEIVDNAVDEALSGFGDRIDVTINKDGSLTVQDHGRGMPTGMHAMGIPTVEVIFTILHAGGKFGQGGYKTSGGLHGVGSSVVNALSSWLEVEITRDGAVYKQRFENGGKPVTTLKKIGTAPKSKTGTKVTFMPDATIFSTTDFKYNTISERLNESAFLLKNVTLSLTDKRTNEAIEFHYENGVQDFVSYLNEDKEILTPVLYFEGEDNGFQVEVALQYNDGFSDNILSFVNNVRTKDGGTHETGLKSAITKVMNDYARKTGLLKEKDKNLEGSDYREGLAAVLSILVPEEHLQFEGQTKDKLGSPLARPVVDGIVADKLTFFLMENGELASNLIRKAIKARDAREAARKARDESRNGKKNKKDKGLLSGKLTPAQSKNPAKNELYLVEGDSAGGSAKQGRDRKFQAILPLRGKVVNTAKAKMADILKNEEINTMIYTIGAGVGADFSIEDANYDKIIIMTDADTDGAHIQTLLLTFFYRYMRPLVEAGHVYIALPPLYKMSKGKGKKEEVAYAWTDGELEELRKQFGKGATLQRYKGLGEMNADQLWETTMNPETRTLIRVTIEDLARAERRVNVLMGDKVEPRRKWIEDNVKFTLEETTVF

[2] = system: baseline bacterial conjunctival pathogens; experiment: Integrated species-specific microbial eradication, Studies 373, 433, 434; format: in vivo, human; settings: for Microbial eradication rate / Microbial eradication rate (eradicated/total): culture-confirmed, as-treated population (Global); for microbial eradication rate, all species combined: Studies 373, 433, 434 integrated, global (US and Asia)
[3] = C. pseudodiphtheriticum, Visit 2
[4] = C. pseudodiphtheriticum, Visit 3
[5] = CDC coryneform group G, Visit 2
[6] = CDC coryneform group G, Visit 3
[7] = S. mitis group (only isolates identified as S. mitis or S. mitis group), Visit 2
[8] = S. mitis group (only isolates identified as S. mitis or S. mitis group), Visit 3

N[C@@H]1CCCCN(c2c(F)cc3c(=O)c(C(=O)O)cn(C4CC4)c3c2Cl)C1 [Besifloxacin, (R)-(+)-(3-amino-2,3,4,5,6,7-hexahydro-1H-azepin-1-yl)-8-chloro-1-cyclopropyl-6-fluoro-1,4,-dihydro-4-oxo-3-quinolinecarboxylic acid]
CC25 Topo IV [1]: 1 μM and 0.4 μg/mL | Microbial eradication rate ([2]; All species, Visit 2): (92.2%) | Microbial eradication rate (eradicated/total) ([2]; All species, Visit 2): 606/656 | Microbial eradication rate ([2]; All species, Visit 3): (88.4%) | Microbial eradication rate (eradicated/total) ([2]; All species, Visit 3): 580/656 | Microbial eradication rate [2, 3]: (100.0%) | Microbial eradication rate (eradicated/total) [2, 3]: 6/6 | Microbial eradication rate [2, 4]: (100.0%) | Microbial eradication rate (eradicated/total) [2, 4]: 6/6 | Microbial eradication rate ([2]; C. striatum, Visit 2): (100.0%) | Microbial eradication rate (eradicated/total) ([2]; C. striatum, Visit 2): 5/5 | Microbial eradication rate ([2]; C. striatum, Visit 3): (100.0%) | Microbial eradication rate (eradicated/total) ([2]; C. striatum, Visit 3): 5/5 | Microbial eradication rate [2, 5]: (93.8%) | Microbial eradication rate (eradicated/total) [2, 5]: 15/16 | Microbial eradication rate [2, 6]: (93.8%) | Microbial eradication rate (eradicated/total) [2, 6]: 15/16 | Microbial eradication rate ([2]; Gram-negative, Visit 2): (92.3%) | Microbial eradication rate (eradicated/total) ([2]; Gram-negative, Visit 2): 193/209 | Microbial eradication rate ([2]; Gram-negative, Visit 3): (90.0%) | Microbial eradication rate (eradicated/total) ([2]; Gram-negative, Visit 3): 188/209 | Microbial eradication rate ([2]; Gram-positive, Visit 2): (92.2%) | Microbial eradication rate (eradicated/total) ([2]; Gram-positive, Visit 2): 412/447 | Microbial eradication rate ([2]; Gram-positive, Visit 3): (87.7%) | Microbial eradication rate (eradicated/total) ([2]; Gram-positive, Visit 3): 392/447 | Microbial eradication rate ([2]; H. influenzae, Visit 2): (91.0%) | Microbial eradication rate (eradicated/total) ([2]; H. influenzae, Visit 2): 152/167 | Microbial eradication rate ([2]; H. influenzae, Visit 3): (88.6%) | Microbial eradication rate (eradicated/total) ([2]; H. influenzae, Visit 3): 148/167 | Microbial eradication rate ([2]; M. lacunata, Visit 2): (100.0%) | Microbial eradication rate (eradicated/total) ([2]; M. lacunata, Visit 2): 5/5 | Microbial eradication rate ([2]; M. lacunata, Visit 3): (80.0%) | Microbial eradication rate (eradicated/total) ([2]; M. lacunata, Visit 3): 4/5 | Microbial eradication rate ([2]; S. aureus, Visit 2): (87.1%) | Microbial eradication rate (eradicated/total) ([2]; S. aureus, Visit 2): 81/93 | Microbial eradication rate ([2]; S. aureus, Visit 3): (83.9%) | Microbial eradication rate (eradicated/total) ([2]; S. aureus, Visit 3): 78/93 | Microbial eradication rate ([2]; S. epidermidis, Visit 2): (94.0%) | Microbial eradication rate (eradicated/total) ([2]; S. epidermidis, Visit 2): 47/50 | Microbial eradication rate ([2]; S. epidermidis, Visit 3): (88.0%) | Microbial eradication rate (eradicated/total) ([2]; S. epidermidis, Visit 3): 44/50 | Microbial eradication rate ([2]; S. hominis, Visit 2): (83.3%) | Microbial eradication rate (eradicated/total) ([2]; S. hominis, Visit 2): 5/6 | Microbial eradication rate ([2]; S. hominis, Visit 3): (100.0%) | Microbial eradication rate (eradicated/total) ([2]; S. hominis, Visit 3): 6/6 | Microbial eradication rate ([2]; S. lugdunensis, Visit 2): (100.0%) | Microbial eradication rate (eradicated/total) ([2]; S. lugdunensis, Visit 2): 5/5 | Microbial eradication rate ([2]; S. lugdunensis, Visit 3): (100.0%) | Microbial eradication rate (eradicated/total) ([2]; S. lugdunensis, Visit 3): 5/5 | Microbial eradication rate [2, 7]: (89.5%) | Microbial eradication rate (eradicated/total) [2, 7]: 17/19 | Microbial eradication rate [2, 8]: (84.2%) | Microbial eradication rate (eradicated/total) [2, 8]: 16/19 | Microbial eradication rate ([2]; S. oralis, Visit 2): (90.9%) | Microbial eradication rate (eradicated/total) ([2]; S. oralis, Visit 2): 10/11 | Microbial eradication rate ([2]; S. oralis, Visit 3): (72.7%) | Microbial eradication rate (eradicated/total) ([2]; S. oralis, Visit 3): 8/11 | Microbial eradication rate ([2]; S. pneumoniae, Visit 2): (92.8%) | Microbial eradication rate (eradicated/total) ([2]; S. pneumoniae, Visit 2): 142/153 | Microbial eradication rate ([2]; S. pneumoniae, Visit 3): (86.3%) | Microbial eradication rate (eradicated/total) ([2]; S. pneumoniae, Visit 3): 132/153 | Microbial eradication rate ([2]; S. salivarius, Visit 2): (100.0%) | Microbial eradication rate (eradicated/total) ([2]; S. salivarius, Visit 2): 5/5 | Microbial eradication rate ([2]; S. salivarius, Visit 3): (80.0%) | Microbial eradication rate (eradicated/total) ([2]; S. salivarius, Visit 3): 4/5 | microbial eradication rate, all species combined ([2]; Visit 2): 92.2% | microbial eradication rate, all species combined ([2]; Visit 3): 88.4%
